For series [1] the following is noted: 92 kPa, Liquid; for mass density: Vibrating tube method.
A short description of series [2]: xn = mol fraction of the nth substance listed. Particulars: 92 kPa, Liquid, x2 = 0; for mass density: Vibrating tube method.

The results in this text go back to the NIST ThermoML archive (doi:10.1021/je0201119).

± gives the expanded uncertainty stated by the source.

One may read the viscosity as the resistance of a fluid to flow. By mass density is commonly meant the mass of a sample divided by its volume. With `CC(C)(N)CO` [2-amino-2-methylpropan-1-ol], the viscosity was 47.8 ± 3.2 mPa·s in series [1] (313.15 K), 25.1 ± 1.7 mPa·s in series [1] (323.15 K), 14.4 ± 1 mPa·s in series [1] (333.15 K) and 8.91 ± 0.69 mPa·s in series [1] (343.15 K). Moreover, the mass density is 919.65 ± 1.4 kg/m3 in series [1] (313.15 K), 911.24 ± 1.4 kg/m3 in series [1] (323.15 K), 902.87 ± 1.4 kg/m3 in series [1] (333.15 K) and 894.28 ± 1.4 kg/m3 in series [1] (343.15 K).

Turning to `O` [water] + CC(C)(N)CO, the viscosity in series [2] (298.15 K) is given as 0.89 ± 0.089 mPa·s; in series [2] (303.15 K), 0.805 ± 0.082 mPa·s; in series [2] (313.15 K), 0.653 ± 0.069 mPa·s; in series [2] (323.15 K), 0.547 ± 0.06 mPa·s; in series [2] (333.15 K), 0.466 ± 0.053 mPa·s; in series [2] (343.15 K), 0.405 ± 0.047 mPa·s. Besides, the values for the mass density in series [2] (323.15 K), in series [2] (333.15 K) and in series [2] (343.15 K) were 988.04 ± 0.06 kg/m3, 983.12 ± 0.06 kg/m3 and 977.77 ± 0.06 kg/m3, respectively.

Take `O` [water]: the viscosity stood at 0.89 ± 0.089 mPa·s in series [1] (298.15 K); 0.805 ± 0.082 mPa·s in series [1] (303.15 K); 0.653 ± 0.069 mPa·s in series [1] (313.15 K); 0.547 ± 0.06 mPa·s in series [1] (323.15 K); 0.466 ± 0.053 mPa·s in series [1] (333.15 K); 0.405 ± 0.047 mPa·s in series [1] (343.15 K). Also, the mass density is 988.04 ± 0.06 kg/m3 in series [1] (323.15 K), 983.12 ± 0.06 kg/m3 in series [1] (333.15 K) and 977.77 ± 0.06 kg/m3 in series [1] (343.15 K).
